We go through one compound from ChEMBL document CHEMBL4190226, “Designing novel inhibitors against histone acetyltransferase (HAT: GCN5) of Plasmodium falciparum” (Eur J Med Chem, 2017).

For this assay, the target named is Histone acetyltransferase GCN5 (Plasmodium falciparum (isolate 3D7)) (UniProt Q8IB67). The assay is described as follows: Inhibition of GCN5 in Plasmodium falciparum 3D7 assessed as reduction in H3K9 acetylation at 25 uM incubated for 15 mins measured by SDS-PAGE analysis.

Molecules are shown by their SMILES. Calls of active or inactive are those of the source. The calls are words filed in the database; no cut-off is given here.

Histone acetyltransferase GCN5 (Plasmodium falciparum (isolate 3D7)), sequence (Q8IB67 as listed by the source): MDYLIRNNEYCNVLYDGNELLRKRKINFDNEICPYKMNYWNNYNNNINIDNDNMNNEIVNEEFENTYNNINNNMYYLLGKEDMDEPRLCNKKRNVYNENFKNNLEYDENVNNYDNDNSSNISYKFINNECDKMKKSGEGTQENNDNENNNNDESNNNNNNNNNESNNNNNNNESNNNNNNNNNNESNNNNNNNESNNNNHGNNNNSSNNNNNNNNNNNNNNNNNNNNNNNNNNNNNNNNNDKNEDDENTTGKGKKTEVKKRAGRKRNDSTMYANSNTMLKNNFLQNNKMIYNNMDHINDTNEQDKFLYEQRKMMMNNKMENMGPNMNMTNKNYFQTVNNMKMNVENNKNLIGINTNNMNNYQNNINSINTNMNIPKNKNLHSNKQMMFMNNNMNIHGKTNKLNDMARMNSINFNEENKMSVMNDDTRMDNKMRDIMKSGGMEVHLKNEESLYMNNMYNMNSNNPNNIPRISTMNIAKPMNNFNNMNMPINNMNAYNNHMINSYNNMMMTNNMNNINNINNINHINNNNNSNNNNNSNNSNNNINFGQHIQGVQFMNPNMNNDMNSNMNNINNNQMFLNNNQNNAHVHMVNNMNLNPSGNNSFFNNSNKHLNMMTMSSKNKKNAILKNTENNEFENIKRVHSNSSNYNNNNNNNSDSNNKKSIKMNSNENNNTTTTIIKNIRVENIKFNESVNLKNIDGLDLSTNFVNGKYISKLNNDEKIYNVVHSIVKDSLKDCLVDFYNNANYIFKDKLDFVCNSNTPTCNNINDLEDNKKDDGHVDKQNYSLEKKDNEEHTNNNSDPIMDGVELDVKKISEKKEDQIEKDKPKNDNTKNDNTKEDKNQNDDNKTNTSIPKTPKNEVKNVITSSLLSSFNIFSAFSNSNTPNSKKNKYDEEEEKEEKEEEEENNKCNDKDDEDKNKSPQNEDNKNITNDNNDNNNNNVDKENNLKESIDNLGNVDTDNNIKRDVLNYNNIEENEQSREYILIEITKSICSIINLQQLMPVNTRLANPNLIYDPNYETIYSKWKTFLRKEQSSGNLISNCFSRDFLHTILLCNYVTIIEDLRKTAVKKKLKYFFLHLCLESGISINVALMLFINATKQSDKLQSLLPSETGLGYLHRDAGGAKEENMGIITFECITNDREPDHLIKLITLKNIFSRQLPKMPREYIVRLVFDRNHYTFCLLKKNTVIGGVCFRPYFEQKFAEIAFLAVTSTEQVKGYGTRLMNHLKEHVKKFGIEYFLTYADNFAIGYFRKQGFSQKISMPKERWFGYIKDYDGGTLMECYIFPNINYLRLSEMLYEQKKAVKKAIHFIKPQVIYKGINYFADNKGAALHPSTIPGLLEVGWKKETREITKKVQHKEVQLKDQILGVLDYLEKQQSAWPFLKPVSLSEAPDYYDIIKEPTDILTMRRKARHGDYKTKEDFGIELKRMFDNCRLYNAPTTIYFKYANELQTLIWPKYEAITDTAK

As to `CCCCCCCCCCCC1=C(O)C(=O)C=C(O)C1=O`, the inhibition result was “Active”.
